Consider six compounds from article PMC6225228, “Design, Synthesis and Evaluation of N-pyrazinylbenzamides as Potential Antimycobacterial Agents” (Molecules : A Journal of Synthetic Chemistry and Natural …, 2018).

Experiment [1] concerns Mycobacterium tuberculosis H37Rv CNCTC My 331/88 (ATCC 27294). Put plainly: Antimycobacterial microdilution MABA, M. tuberculosis. The experiment is classed as cell-based. The conditions noted are these: Middlebrook 7H9 with OADC growth supplement, pH = 6.6, MABA; for MIC: Mycobacterium tuberculosis, read-out: Mtb H37Rv ATCC 27294 MIC.
Experiment [2] deals with M. kansasii CNCTC My 235/80 (ATCC 12478). Description: Antimycobacterial microdilution MABA, M. kansasii. Type of experiment: cell-based, Mycobacterium kansasii. The conditions noted are these: for MIC: Mycobacterium kansasii.
The test system of experiment [3] is M. avium ssp. avium CNCTC My 80/72 (ATCC 15769). Put plainly: Antimycobacterial microdilution MABA, M. avium. Type of experiment: cell-based, Mycobacterium avium. The conditions noted are these: for MIC: Mycobacterium avium.
Experiment [4] relates to Candida albicans ATCC 44859. Description: Antifungal microdilution broth, CA. Type of experiment: cell-based. The conditions noted are these: Candida albicans, read-out: MIC CA. On the technique in general: In broth dilution the organism is exposed to a series of concentrations in liquid medium.
For a further experiment, the system named is Candida tropicalis 156. Put plainly: Antifungal microdilution broth, CT. Type of experiment: cell-based. The conditions noted are these: read-out: MIC CT.
In the next experiment the test system is Candida krusei E28. Put plainly: Antifungal microdilution broth, CK. Type of experiment: cell-based. The conditions noted are these: Pichia kudriavzevii, read-out: MIC CK.
For a further experiment, the system named is Candida glabrata 20/I. Put plainly: Antifungal microdilution broth, CG. Type of experiment: cell-based. The conditions noted are these: Nakaseomyces glabratus, 20/I, read-out: MIC CG.
The next experiment has as its system Trichosporon asahii 1188. Put plainly: Antifungal microdilution broth, TA. The experiment is classed as cell-based. The conditions noted are these: read-out: MIC TA.
The subject of experiment [5] is Aspergillus fumigatus 231. Description: Antifungal microdilution broth, AF. Type of experiment: cell-based. The conditions noted are these: read-out: MIC AF.
Experiment [6] deals with Lichtheimia corymbifera 272. Description: Antifungal microdilution broth, LC. Type of experiment: cell-based. The conditions noted are these: read-out: MIC LC.
Experiment [7] relates to Trichophyton interdigitale 445. Put plainly: Antifungal microdilution broth, TI. The conditions noted are these: read-out: MIC TI. Type of experiment: cell-based.
Experiment [8] concerns Staphylococcus aureus CCM 4516/08. Put plainly: Antibacterial microdilution broth, SA. The experiment is classed as cell-based. The conditions noted are these: read-out: MIC SA.
Experiment [9] deals with Staphylococcus aureus H 5996/08 methicillin resistant. Put plainly: microbe, parasite or virus in culture. Type of experiment: cell-based.
In experiment [10] the test system is Staphylococcus epidermidis H 6966/08. Put plainly: Antibacterial microdilution broth, SE. Type of experiment: cell-based. The conditions noted are these: read-out: MIC SE.
Experiment [11] deals with Enterococcus sp. J 14365/08. Description: Antibacterial microdilution broth, EF. Type of experiment: cell-based. The conditions noted are these: read-out: MIC EF.
Experiment [12] relates to Escherichia coli CCM 4517. Put plainly: Antibacterial microdilution broth, EC. Type of experiment: cell-based. The conditions noted are these: read-out: MIC EC.
The subject of experiment [13] is Pseudomonas aeruginosa CCM 1961. Put plainly: Antibacterial microdilution broth, PA. The conditions noted are these: read-out: MIC PA. Type of experiment: cell-based.
The test system of experiment [14] is Mycobacterium smegmatis CCM 4622 (ATCC 607). Description: Antimycobacterial microdilution, M. smegmatis. Type of experiment: cell-based. The conditions noted are these: Middlebrook 7H9 with OADC, resazurin.
Setting [15] is: Middlebrook 7H9 with OADC, pH 6.6, MABA.

≈ marks a conversion by molar mass, not a printed value. Where “and” joins values, the source holds several entries; their conditions need not be identical. Identical values can stand only once. Like-named read-outs stand apart in the source and are kept apart here.

The MIC is the lowest concentration found to suppress growth. As to `NNC(=O)c1ccncc1` [INH, isoniazid, reference compound], the “Mtb H37Rv ATCC 27294 MIC” value in experiment [1] is 0.1 to 0.39 µg/mL. In addition, the minimal inhibitory concentration (MIC) in [1] is 0.1 to 0.2 µg/mL (≈ 0.729 to 1.46 µM); in experiment [2] (ATCC12478, pH 6.6, read-out: M. kans. ATCC 12478 MIC, Middlebrook 7H9 with OADC, pH 6.6, MABA), 3.13 to 12.5 µg/mL (≈ 22.8 to 91.1 µM); in experiment [3] (ATCC15769, pH 6.6, read-out: M. avium ATCC 15769 MIC), 6.25 to 12.5 µg/mL (≈ 45.6 to 91.1 µM). The “M. kans. ATCC 12478 MIC” value in experiment [2] (setting [15]) lay in the range of 6.25 to 12.5 µg/mL.

Take `OC(Cn1cncn1)(Cn1cncn1)c1ccc(F)cc1F` [FLU, fluconazole, reference compound]: the MIC was 0.24 µM (≈ 0.0735 µg/mL) in experiment [4] (ATCC44859, 24 h); 0.24 µM (≈ 0.0735 µg/mL) in [4] (ATCC44859, 48 h); greater than 500 µM in the experiment on Candida tropicalis 156 (Candida tropicalis, 156, 24 h); greater than 500 µM with Candida tropicalis 156 (Candida tropicalis, 156, 48 h); 125 µM (≈ 38.3 µg/mL) in the experiment on Candida krusei E28 (E28, 24 h); 250 µM (≈ 76.6 µg/mL) in the experiment on Candida krusei E28 (E28, 48 h). Further, the minimal inhibitory concentration (MIC) is 31.2 µM (≈ 9.57 µg/mL) in the experiment on Candida glabrata 20/I (24 h); 250 µM (≈ 76.6 µg/mL) in the experiment with Candida glabrata 20/I (48 h); 250 µM (≈ 76.6 µg/mL) in the experiment on Trichosporon asahii 1188 (Trichosporon asahii, 1188, 24 h); 500 µM (≈ 153 µg/mL) in the experiment on Trichosporon asahii 1188 (Trichosporon asahii, 1188, 48 h); greater than 500 µM in experiment [5] (Aspergillus fumigatus, 231, 24 h); greater than 500 µM in experiment [5] (Aspergillus fumigatus, 231, 48 h). Also, the MIC was greater than 500 µM in experiment [6] (Lichtheimia corymbifera, 272, 24 h); greater than 500 µM in experiment [6] (Lichtheimia corymbifera, 272, 48 h); 7.81 µM (≈ 2.39 µg/mL) in experiment [7] (Trichophyton interdigitale, 445, 72 h); 125 µM (≈ 38.3 µg/mL) in experiment [7] (Trichophyton interdigitale, 445, 120 h).

Consider bacitracin [reference compound], for which the MIC in experiment [8] (24 h) worked out at 15.62 µM; in [8] (48 h), 31.25 µM; in experiment [10] (24 h), 15.62 µM; in experiment [10] (48 h) it was 31.25 µM; in [11] (24 h), 31.25 µM; in experiment [11] (48 h) it was 31.25 µM. In addition, the MIC in experiment [12] (24 h), in experiment [12] (48 h), in experiment [13] (72 h) and in experiment [13] (120 h) was greater than 500 µM each time. For the same compound, the “MIC MRSA” value was 15.62 µM in experiment [9] (24 h) and 31.25 µM in experiment [9] (48 h).

With `NC[C@@H]1O[C@H](O[C@H]2[C@@H](O)[C@H](O[C@@H]3[C@@H](O)[C@H](N)C[C@H](N)[C@H]3O[C@H]3O[C@H](CN)[C@@H](O)[C@H](O)[C@H]3N)O[C@@H]2CO)[C@H](N)[C@@H](O)[C@@H]1O` [Neom, neomycin, reference compound], the MIC in [8] (24 h) is 3.9 µM and 3.90 µM; in experiment [8] (48 h) it was 3.9 µM and 3.90 µM; in [10] (24 h), 3.9 µM and 3.90 µM; in experiment [10] (48 h) it was 7.81 µM (≈ 4.8 µg/mL); in experiment [11] (24 h), 250 µM (≈ 154 µg/mL); in [11] (48 h), 250 µM (≈ 154 µg/mL). The MIC stood at 0.98 µM (≈ 0.602 µg/mL) in [12] (24 h), 0.98 µM (≈ 0.602 µg/mL) in experiment [12] (48 h), 7.81 µM (≈ 4.8 µg/mL) in experiment [13] (72 h) and 15.62 µM (≈ 9.6 µg/mL) in experiment [13] (120 h). In addition, the “MIC MRSA” value in experiment [9] (24 h) and in experiment [9] (48 h) was 0.98 µM (≈ 0.602 µg/mL) each time.

As for `O=C(Nc1cncc(Cl)n1)c1ccccc1O` [Compound 3b], the “Mtb H37Rv ATCC 27294 MIC” value in experiment [1] is reported as greater than 100 µg/mL. Further, the “M. kans. ATCC 12478 MIC” value in experiment [2] (setting [15]) is on record as greater than 100 µg/mL. Further, the “M. avium ATCC 15769 MIC” value in [3] (setting [15]) is greater than 100 µg/mL. In addition, the “M. smeg. ATCC 607 MIC” value in [14] worked out at 250 µg/mL.

Regarding `CCc1ccc(C(=O)Nc2cncc(Cl)n2)cc1` [Compound 3i], the MIC was greater than 100 µg/mL in experiment [1]; greater than 100 µg/mL in experiment [2] (ATCC12478, Middlebrook 7H9 with OADC, pH 6.6, MABA, read-out: M. kans. ATCC 12478 MIC); greater than 100 µg/mL in experiment [3] (ATCC15769, Middlebrook 7H9 with OADC, pH 6.6, MABA, read-out: M. avium ATCC 15769 MIC); no less than 500 µg/mL in experiment [14] (Mycolicibacterium smegmatis, read-out: M. smeg. ATCC 607 MIC).
